In patent US10729675B2, “Gossypol isatin schiff base compounds with antitumor activities and a method of preparing the same” (SHAANXI UNIVERSITY OF SCIENCE AND TECHNOLOGY, priority 2018, dated 2020):

Tests used:
[1] = test system: human hepatoma cells (HepG2); assay: tumor cell proliferation inhibition test, MTT method, HepG2; assay type: cell-based; details: 48 hours treatment, read-out: Half Inhibitory Concentration IC50 HepG2
Protocol: (§1) The compounds of the present invention were subjected to tumor cell proliferation inhibition test, and conventional MTT method was used.
(§2) Cell lines: human hepatoma cells (HepG2), human lung cancer cells (A-549), human gastric cancer cells (SGC-7901). The culture medium was DMEM+15% NBS+double antibody.
(§3) Sample solution preparation: after dissolving with DMSO (Merck), PBS (−) was added to obtain 100 μmol/L solution or homogeneous suspension. The solution was diluted with PBS (−) in DMSO to a final concentration of 0.1, 1, 10, 20, 40, 60, 80, 100 μmol/L.
(§4) Gossypol was used as control solution, prepared under the same condition.
(§5) Cell culture: adherent growth Tumor cells were cultured in 1640 medium containing 10% inactivated neonatal bovine serum and penicillin, streptomycin (1 million U/L), placed in carbon dioxide incubator at 37° C., 5% CO2, and saturated humidity. Cells were treated serially passaged 2-3 times. The first culture was washed with PBS 2 times, and digested with trypsin. Fresh culture medium was added evenly, cells were adjusted to a appropriate concentration and transferred into a new culture flask. Cell in an exponential phase were chosen for the tests.
(§6) Experimental Principle: Living cells mitochondria in the dehydrogenase can reduce yellow MTT to water-insoluble blue-violet product MT (MTT formazan), deposited in the cells. The amount of production is proportional to the number of living cells. […] DMSO can dissolve blue violet crystals, and the color depth is proportional to the amount contained, so the absorbance measured by the microplate reader can reflect the cell viability.
(§7) Methods: The exponential phase cells were digested and counted and seeded in 96-well plates at a density of 2×10^4/mL at 100 μl per well. After 24 hours of incubation, the cells to be tested were treated with 0.1, 1, 10, 20, 40, 60, 80, 100 μmol/L of the compounds. Each experimental group had 5 wells in each concentration, and the culture medium containing 0.4% DMSO was used as control. After 48 hours, the supernatant was discarded, and 100 μl of MTT ((2-(4,5-dimethyl-2-thiazolyl)-3,5-diphenyl-2H-tetrazole hydrobromide) (1 mg/mL) was added to each well. After another 4 hours, the supernatant was discarded, and 100 μl of DMSO was added to each well. After mixing, the absorbance was measured at 570 nm using a microplate reader. An IC50 calculation software was used to determine the half inhibitory concentration (IC50).

[2] = test system: human lung cancer cells (A-549); assay: tumor cell proliferation inhibition test, MTT method, A-549; assay type: cell-based; details: A549 cells, 48 hours treatment, read-out: Half Inhibitory Concentration IC50 A549
Protocol: as §1, §2, §3, §4, §5, §6, §7

[3] = test system: human gastric cancer cells (SGC-7901); assay: tumor cell proliferation inhibition test, MTT method, SGC-7901; assay type: cell-based; details: SGC-7901 cells, 48 hours treatment, read-out: Half Inhibitory Concentration IC50 SGC-7901
Protocol: as §1, §2, §3, §4, §5, §6, §7

[4] = test system: HepG2, A-549, SGC-7901 tumor cells; assay: anti-tumor activity test, MTT method, summary over the three cell lines tested; assay type: cell-based, human
Protocol: as §1, §2, §3, §4
as §5, with “Cell in an exponential phase were chosen for the tests.” left out
as §6, with “the” for “the cells. The amount of production is proportional to the number of living”
as §7, with “After 24 hours of incubation, the cells to be tested were treated with 0.1, 1, 10, 20, 40, 60, 80, 100 μmol/L of the compounds. Each experimental group had 5 wells in each concentration, and the culture medium containing 0.4% DMSO was used as control.” left out

| Compound | IC50 [1] | IC50 [2] | IC50 [3] | melting point | antitumor activities (in words) [4] |
| --- | --- | --- | --- | --- | --- |
| Cc1ccc2c(c1)/C(=N/N=C/c1c(O)c(O)c(C(C)C)c3cc(C)c(-c4c(C)cc5c(C(C)C)c(O)c(O)c(/C=N/N=C6/C(=O)Nc7ccc(C)cc76)c5c4O)c(O)c13)C(=O)N2 [Compound 1, (3Z,3′E)-3,3′-(((1E,1′E)-(1,1′,6,6′,7,7′-hexahydroxy-5,5′-diisopropyl-3,3′-dimethyl-[2,2′-binaphthalene]-8,8′-diyl)bis(methanylylidene))bis(hydrazine-2,1-diylidene))bis(5-methylindolin-2-one)] | > 100 µM | > 100 µM | > 100 µM | 187.5 °C |  |
| CCN1C(=O)/C(=N\N=C\c2c(O)c(O)c(C(C)C)c3cc(C)c(-c4c(C)cc5c(C(C)C)c(O)c(O)c(/C=N/N=C6/C(=O)N(CC)c7ccc(Cl)cc76)c5c4O)c(O)c23)c2cc(Cl)ccc21 [Compound 5, (3Z,3′E)-3,3′-(((1E, 1′E)-(1,1′,6,6′,7,7′-hexahydroxy-5,5′-diisopropyl-3,3′-dimethyl-[2,2′-binaphthalene]-8,8′-diyl)bis(methanylylidene))bis(hydrazine-2,1-diylidene))bis(5-chloro-1-ethylindolin-2-one)] | 8.92 ± 0.59 µM | 19.3 ± 1.62 µM | 13.7 ± 1.11 µM |  | good activities |
| Cc1cc2c(C(C)C)c(O)c(O)c(/C=N/N=C3\C(=O)N(Cc4ccccc4)c4ccccc43)c2c(O)c1-c1c(C)cc2c(C(C)C)c(O)c(O)c(/C=N/N=C3/C(=O)N(Cc4ccccc4)c4ccccc43)c2c1O [Compound 8, (3Z,3′E)-3,3′-(((1E, 1′E)-(1,1′,6,6′,7,7′-hexahydroxy-5,5′-diisopropyl-3,3′-dimethyl-[2,2′-binaphthalene]-8,8′-diyl)bis(methanylylidene))bis(hydrazine-2,1-diylidene))bis(1-benzylindolin-2-one)] | > 100 µM | > 100 µM | 88.8 ± 3.02 µM | 219.9 °C |  |
| Cc1cc2c(C(C)C)c(O)c(O)c(/C=N/N=C3\C(=O)N(C(C)C)c4ccc(Cl)cc43)c2c(O)c1-c1c(C)cc2c(C(C)C)c(O)c(O)c(/C=N/N=C3/C(=O)N(C(C)C)c4ccc(Cl)cc43)c2c1O [Compound 6, (3Z,3′E)-3,3′-(((1E,1′E)-(1,1′,6,6′,7,7′-hexahydroxy-5,5′-diisopropyl-3,3′-dimethyl-[2,2′-binaphthalene]-8,8′-diyl)bis(methanylylidene))bis(hydrazine-2,1-diylidene))bis(5-chloro-1-isopropylindolin-2-one)] | > 100 µM | 66.5 ± 2.53 µM | > 100 µM | 216.3 °C |  |
| Cc1cc2c(C(C)C)c(O)c(O)c(/C=N/N=C3\C(=O)N(Cc4ccccc4)c4ccc(Cl)cc43)c2c(O)c1-c1c(C)cc2c(C(C)C)c(O)c(O)c(/C=N/N=C3/C(=O)N(Cc4ccccc4)c4ccc(Cl)cc43)c2c1O [Compound 7, (3Z,3′E)-3,3′-(((1E, 1′E)-(1,1′,6,6′,7,7′-hexahydroxy-5,5′-diisopropyl-3,3′-dimethyl-[2,2′-binaphthalene]-8,8′-diyl)bis(methanylylidene))bis(hydrazine-2,1-diylidene))bis(1-benzyl-5-chloroindolin-2-one)] | 14.7 ± 1.12 µM | 16.3 ± 1.21 µM | 12.5 ± 1.93 µM |  | good activities |
| Cc1cc2c(C(C)C)c(O)c(O)c(/C=N/N=C3\C(=O)N(C)c4ccc(Cl)cc43)c2c(O)c1-c1c(C)cc2c(C(C)C)c(O)c(O)c(/C=N/N=C3/C(=O)N(C)c4ccc(Cl)cc43)c2c1O [Compound 4, (3Z,3′E)-3,3′-(((1E, 1′E)-(1,1′,6,6′,7,7′-hexahydroxy-5,5′-diisopropyl-3,3′-dimethyl-[2,2′-binaphthalene]-8,8′-diyl)bis(methanylylidene))bis(hydrazine-2,1-diylidene))bis(5-chloro-1-methylindolin-2-one)] | > 100 µM | > 100 µM | > 100 µM | 204.3 °C |  |
| Cc1cc2c(C(C)C)c(O)c(O)c(/C=N/N=C3\C(=O)N(C)c4ccccc43)c2c(O)c1-c1c(C)cc2c(C(C)C)c(O)c(O)c(/C=N/N=C3/C(=O)N(C)c4ccccc43)c2c1O [Compound 3, (3Z,3′E)-3,3′-(((1E, 1′E)-(1,1′,6,6′,7,7′-hexahydroxy-5,5′-diisopropyl-3,3′-dimethyl-[2,2′-binaphthalene]-8,8′-diyl)bis(methanylylidene))bis(hydrazine-2,1-diylidene))bis(1-methylindolin-2-one)] | 8.67 ± 0.74 µM | 7.87 ± 0.91 µM | 16.6 ± 1.46 µM |  | excellent antitumor activities |
| Cc1cc2c(C(C)C)c(O)c(O)c(/C=N/N=C3\C(=O)Nc4ccc(Cl)cc43)c2c(O)c1-c1c(C)cc2c(C(C)C)c(O)c(O)c(/C=N/N=C3/C(=O)Nc4ccc(Cl)cc43)c2c1O [Compound 2, (3Z,3′E)-3,3′-(((1E,1′E)-(1,1′,6,6′,7,7′-hexahydroxy-5,5′-diisopropyl-3,3′-dimethyl-[2,2′-binaphthalene]-8,8′-diyl)bis(methanylylidene))bis(hydrazine-2,1-diylidene))bis(5-chloroindolin-2-one)] | 29.4 ± 2.1 µM | 68.3 ± 2.15 µM | > 100 µM | 190.7 °C |  |
